In the case of `CC(C)n1nc(-c2c(-c3ccccc3)nn3ccc(C#Cc4ccccc4)cc23)ccc1=O` [Example 138, 5-Phenylethynyl-3-(3-oxo-2-isopropyl-2,3-dihydropyridazin-6-yl)-2-phenylpyrazolo[1,5-a]pyridine], the melting point (usually the temperature of the solid-liquid transition) was in the range of 185 to 186 °C. `COc1ccn2nc(-c3ccccc3)c(-c3ccc(=O)n(C4CCOC4)n3)c2c1` (stereo not shown) [Example 118, 5-Methoxy-3-[3-oxo-2-(tetrahydrofuran-3-yl)-2,3-dihydropyridazin-6-yl]-2-phenylpyrazolo[1,5-a]pyridine] gave a melting point of 207 to 208 °C.

`CCN(CC)C(=O)c1ccn2nc(-c3ccccc3)c(-c3ccc(=O)n(C(C)C)n3)c2c1` [Example 85, N,N-Diethyl-3-(3-oxo-2-isopropyl-2,3-dihydropyridazin-6-yl)-2-phenylpyrazolo[1,5-a]pyridine-5-carboxamide] yielded a melting point of 157 to 158 °C.

Regarding `CC(C)n1nc(-c2c(-c3ccccc3)nn3ccc(N4CCC(O)CC4)cc23)ccc1=O` [Example 101, 5-(4-Hydroxy-1-piperidinyl)-3-(3-oxo-2-isopropyl-2,3-dihydropyridazin-6-yl)-2-phenylpyrazolo[1,5-a]pyridine], the melting point was in the range of 213 to 215 °C. Consider `CC(C)n1nc(-c2c(-c3ccccc3)nn3ccc(OCCc4ccccc4)cc23)ccc1=O` [Example 9, 5-Phenethyloxy-3-(3-oxo-2-isopropyl-2,3-dihydropyridazin-6-yl)-2-phenylpyrazolo[1,5-a]pyridine], for which the melting point was in the range of 154.5 to 155.5 °C. Consider `CC(C)n1nc(-c2c(-c3ccccc3)nn3ccc(C(=O)N4CCCC4)cc23)ccc1=O` [Example 73, 5-(1-pyrrolidinylcarbonyl)-3-(3-oxo-2-isopropyl-2,3-dihydropyridazin-6-yl)-2-phenylpyrazolo[1,5-a]pyridine], for which the melting point lay in the range of 189 to 190 °C.

As for `CC(C)n1nc(-c2c(-c3ccccc3)nn3ccc(OCC(=O)NC4CCCC4)cc23)ccc1=O` [Example 62, N-Cyclopentyl-2-{[3-(3-oxo-2-isopropyl-2,3-dihydropyridazin-6-yl)-2-phenylpyrazolo[1,5-a]pyridin-5-yl]oxy}acetamide], the melting point lay in the range of 187 to 188 °C. On to `CC(C)n1nc(-c2c(-c3ccccc3)nn3ccc(C(=O)NC(C)(C)C)cc23)ccc1=O` [Example 83, N-(tert-Butyl)-3-(3-oxo-2-isopropyl-2,3-dihydropyridazin-6-yl)-2-phenylpyrazolo[1,5-a]pyridine-5-carboxamide], for which the melting point fell in the range of 200 to 201 °C. The same measure for `CC(C)C(=O)Nc1ccn2nc(-c3ccccc3)c(-c3ccc(=O)n(C(C)C)n3)c2c1` [Example 149, 5-(2-Methylpropanoylamino)-3-(3-oxo-2-isopropyl-2,3-dihydropyridazin-6-yl)-2-phenylpyrazolo[1,5-a]pyridine]: 199 to 200 °C; for `CCCOc1cccn2nc(-c3ccccc3)c(-c3ccc(=O)n(C(C)C)n3)c12` [Example 197, 4-n-Propoxy-3-(3-oxo-2-isopropyl-2,3-dihydropyridazin-6-yl)-2-phenylpyrazolo [1,5-a]pyridine]: 176 to 177 °C. For `CC(C)n1nc(-c2c(-c3ccccc3)nn3ccc(N)cc23)ccc1=O` [Example 146, 5-amino-3-(3-oxo-2-isopropyl-2,3-dihydropyridazin-6-yl)-2-phenylpyrazolo[1,5-a]pyridine], the melting point lay in the range of 196 to 197 °C. For the compound `CC(C)NC(=O)c1ccn2nc(-c3ccccc3)c(-c3ccc(=O)n(C(C)C)n3)c2c1` [Example 95, N-Isopropyl-3-(3-oxo-2-isopropyl-2,3-dihydropyridazin-6-yl)-2-phenylpyrazolo[1,5-a]pyridine-5-carboxamide], the melting point was 230 to 232 °C. Next, `COC(=O)N1CCN(c2ccn3nc(-c4ccccc4)c(-c4ccc(=O)n(C(C)C)n4)c3c2)CC1` [Example 108, methyl 4-[3-(3-oxo-2-isopropyl-2,3-dihydropyridazin-6-yl)-2-phenylpyrazolo[1,5-a]pyridin-5-yl]-1-piperazinecarboxylate]: 206 to 207 °C.

The record behind these values is patent US20040110763A1, “Pyrazolopyridine compound and pharmaceutical use thereof” (priority 2000, published 2004).
